Experimental data taken from patent publication US7470669B2, “Isolated polypeptide comprising a leptin fragment” (Serono Genetics Institute, S.A., priority 1999, dated 2008).

Columns and labels:
[1] = system: ob/ob mice; test: Food intake of ob/ob mice under daily subcutaneous injections; assay type: in vivo, mouse; conditions: daily subcutaneous injections of 25 μg over a 12 day period
Description: A synthetic peptide with a sequence identical to that of mouse leptin between residues 117-138 was obtained and found to stimulate the oleate-induced binding of ^125I-LDL in primary cultures of rat hepatocytes (FIG. 11B, insert). Daily subcutaneous injections of 25 μg of this synthetic leptin peptide to ob/ob mice had no effect on the food intake over a 12 day period (7.6±0.4 g/day in ob/ob receiving saline and 6.7±0.3 g/day in ob/ob receiving peptide; n=4, NS). Daily injections of 25 μg of mouse leptin caused a reduction of food intake to 4.7±0.5 g/day (n=3; p<0.003 versus controls).

[2] = system: LSR; test: 125I-leptin degradation in PLC cells; assay type: cell-based, human; conditions: PLC cells, 2 h incubation
[3] = system: rat LSR; test: Ligand blot of 125I-leptin on partially purified rat LSR; assay type: binding; conditions: 200 ng/mL 125I-leptin
Description: Aliquots (72 μg) of partially purified rat liver LSR were separated on a 4%-12% SDS-gradient polyacrylamide gel, and transferred to nitrocellulose as described previously (Yen F. T., Masson M., Clossais-Besnard N., Andre P., Grosset J. M., Bougueleret L., Dumas J. B., Guerassimenko, O., and Bihain B. E. (1999). J Biol Chem 274, 13390-13398) a gel strip stained with Coomassie blue is shown in lane 1. The nitrocellulose strips were washed, blocked, and incubated with anti-rat LSR protein antiserum (1:1000 dilution) (lane 2), or with 200 ng/mL ^125I-leptin (lane 3). The strips were washed and bands were detected as described herein. Image analysis of lane 3 was performed on a Phosphorimager (Molecular Dynamics).
Partially purified rat LSR (240 kDa band complex) was obtained as described previously (Yen F. T., Masson M., Clossais-Besnard N., Andre P., Grosset J. M., Bougueleret L., […] Dumas J. B., Guerassimenko, O., and Bihain B. E. (1999). J Biol Chem 274, 13390-13398.) The band was separated on non-denaturing 4-12% gradient SDS polyacrylamide gel, and was transferred to nitrocellulose by semi-dry transfer (Biorad, 18 V, […]). […]

[4] = Plasma leptin concentration after subcutaneous leptin injection in ob/ob mice; assay type: in vivo, mouse; conditions: 50 ng s.c., at 2 h
Description: Na ^125I was purchased from Amersham-Pharmacia (Piscataway, N.J.; Les Ulis, France). Oleic acid, bovine serum albumin (A2153) (BSA), were obtained from Sigma (St. Louis, Mo.; St. Quentin Fallavier, France). Sodium heparin was purchased from Choay laboratories (Gentilly, France). Fugene was purchased from Roche Boehringer Mannheim (Indianapolis, Ind.), and Superfect from Qiagen (Valencia, Calif.). Zeocin was obtained from Invitrogen (Carlsbad, Calif.). Suramin was a gift from Bayer Pharmaceuticals (Puteaux, France). Enzymatic kits for the determination of TG and FFA were obtained from Roche-Boehringer Mannheim (Meylan, France) and WAKO (Richmond, Va.; Unipath, Dardilly, France), respectively. Dulbecco's modified Eagle's medium (DMEM), trypsin, penicillin-streptomycin, glutamine, and fetal bovine serum (FBS) were purchased from Life Technologies, Inc (Grand Island, N.Y.; Eragny, France). RIA kits for plasma leptin measurements were obtained from Linco (St. Louis, Mo.). […]
This injection caused a transient increase in plasma leptin concentrations up to 3.25±0.03 ng/mL at 2 h; baseline values were recorded 4 h after injection. […]

[5] = system: LSR mRNA; test: Northern analysis of LSR mRNA in PLC cells preincubated 24 h with leptin; assay type: cell-based, human; conditions: preincubated 24 h with 200-400 ng/mL leptin
Description: FIGS. 35A and 35B show graphs of LSR activity and mRNA expression measured in PLC cells preincubated 24 h with leptin. In FIG. 35A, PLC monolayers were incubated 24 h at 37° C. with (o) or without (n) 200 ng/mL human recombinant leptin. After washing with PBS, cells were incubated 30 min at 37° C. with increasing concentrations of human leptin, followed by a 2 h incubation at 37° C. with 0.8 mM oleate and 20 μg/mL ^125I-LDL. Cells were washed, and the amount of oleate-induced ^125I-LDL binding was measured as described previously. Results are shown as the mean of triplicate determinations. In FIG. 35B, PLC monolayers were incubated 24 h at 37° C. with 0, 200, or 400 ng/mL human recombinant leptin. After washing with PBS, the cells were harvested. Total RNA was prepared from the cell pellets, and Northerns were performed to detect LSR mRNA, using GAPDH probe as loading control as described previously. Northern blots were scanned on the Phosphorimager (Molecular Dynamics, Sunnyvale, Calif.). Densitometric analysis of the images was performed using the software ImageQuant. Results are shown as the amount of LSR signal relative to that of GAPDH (mean±SD, n=3/condition). […]

[6] = system: LSR mRNA; test: Northern blot of LSR mRNA in leptin-treated rat hepatocytes; assay type: cell-based; conditions: rat hepatocytes after 30 min leptin treatment
Description: Northern blots were performed as described previously using as a probe clone 18251 described above (Yen F. T., Masson M., Clossais-Besnard N., Andre P., Grosset J. M., Bougueleret L., Dumas J. B., Guerassimenko, O., and Bihain B. E. (1999). J Biol Chem 274, 13390-13398).

Substance	food intake [1]	leptin concentration at which 125I-leptin degradation saturated [2]	binding of 125I-leptin to partially purified rat LSR multimeric complexes [3]	plasma leptin concentrations [4]	decrease of hepatocyte LSR mRNA relative to GAPDH [5]	LSR mRNA levels (Northern blots) [6]
CSLPQTSGLQKPESLDGVLEAS (listed as Mus musculus) [mouse peptide, mouse leptin fragment residues 117-138, 22-mer]	6.7 ± 0.3 g/day	–	–	–	–	–
leptin: plasma protein of 16 kDa produced by adipocytes; recombinant human or mouse leptin, species depends on the experiment	–	≥ 10 ng/mL	bound	3.25 ± 0.03 ng/mL	25-35%	did not increase mRNA levels significantly
